Assay results from BigSolDB 2.1.

Nc1cccc2c1CN(C1CCC(=O)NC1=O)C2=O (stereo not given)
solubility (mole fraction)
Settings | 293.15 K | 298.15 K | 303.15 K | 308.15 K | 313.15 K | 318.15 K | 323.15 K | 328.15 K | 333.15 K
in acetonitrile | 0.000539 | 0.000549 | 0.000561 | 0.000573 | 0.000588 | 0.000603 | 0.000618 | 0.000634 | 0.000652
in ethanol | 0.000164 | 0.000183 | 0.000209 | 0.000238 | 0.00027 | 0.000309 | 0.000357 | 0.000404 | 0.00046
in ethyl acetate | 0.000127 | 0.000144 | 0.000164 | 0.000184 | 0.00021 | 0.000239 | 0.000277 | 0.000319 | 0.000367
in isopropanol | 6.37e-05 | 7.79e-05 | 9.5e-05 | 0.000116 | 0.000141 | 0.000168 | 0.000195 | 0.000231 | 0.000271
in methanol | 0.000252 | 0.000269 | 0.000288 | 0.000309 | 0.000332 | 0.000359 | 0.000394 | 0.000434 | 0.00048
